Assay results reported in patent US9481687B2, “IRAK inhibitors and uses thereof” (Nimbus Iris, Inc., priority 2012, dated 2016).
pIC50: −log10 of the molar value. Counter-ions that a name gives are not always drawn.

Columns and labels:
IRAK4 = target: T1, IRAK4 (Homo sapiens, UniProt Q9NWZ3); experiment: IRAK-4 activity inhibition assay (Caliper); type: biochemical; details: 3.5 nM IRAK4, 37 μM ATP, 1.5 μM Peptide 8
T1 construct: purchased CARNA Bioscience 09-145
T1 sequence (Q9NWZ3 1-460): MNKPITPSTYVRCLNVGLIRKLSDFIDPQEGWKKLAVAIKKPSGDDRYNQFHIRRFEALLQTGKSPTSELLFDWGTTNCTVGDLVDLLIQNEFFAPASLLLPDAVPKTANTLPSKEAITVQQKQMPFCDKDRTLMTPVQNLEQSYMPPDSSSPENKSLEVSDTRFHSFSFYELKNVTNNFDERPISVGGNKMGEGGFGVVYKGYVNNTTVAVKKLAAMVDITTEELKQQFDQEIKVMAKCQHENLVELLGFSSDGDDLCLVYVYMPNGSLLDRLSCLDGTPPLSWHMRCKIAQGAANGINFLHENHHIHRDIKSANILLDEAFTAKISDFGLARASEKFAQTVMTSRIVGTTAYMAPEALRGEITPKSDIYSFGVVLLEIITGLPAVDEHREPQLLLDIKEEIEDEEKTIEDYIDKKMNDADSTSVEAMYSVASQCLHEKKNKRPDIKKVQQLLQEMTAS
Experimental: A 1× kinase base buffer was prepared from 50 mM HEPES, pH 7.5 and 0.0015% Brij-35. A stop buffer was prepared from 100 mM HEPES, pH 7.5, 0.015% Brij-35, 0.2% Coating Reagent #3, and 50 mM EDTA.
Test compound was diluted to 50× of the final desired highest inhibitor concentration in reaction by 100% DMSO. 100 ul of this compound dilution was transferred to a well in a 96-well plate.
Test compound was serially diluted by transferring 30 μl to 60 μl of 100% DMSO in the next well and so forth for a total of 10 concentrations. 100 μl of 100% DMSO was added to two empty wells for no compound control and no enzyme control in the same 96-well plate.
A new 96-well plate was marked as intermediate plate. 5 μl of compound serial dilution was transferred from source plate to the corresponding wells of the intermediate plate. 45 μl of 1× kinase base buffer (KB buffer) was added to each well of the intermediate plate. The intermediate plate was placed for 10 min on a shaker.
5 μl of each well was transferred from the 96-well intermediate plate to a 384-well plate in duplicates. For example, A1 of the 96-well plate is transferred to A1 and A2 of the 384-well plate. A2 of the 96-well plate is transferred to A3 and A4 of the 384-well plate, and so on.
IRAK4 and DTT in 1× kinase base buffer was added. The 2.5× enzyme mix contained 8.8 nM IRAK4 and 5 mM DTT.
Peptide 8, ATP, MgCl2 and MnCl2 were added in the 1× kinase base buffer. The 2.5× peptide mix contained 3.75 μM peptide 8, 92.5 μM ATP, 12.5 mM MgCl2 and 2.5 mM MnCl2.
Assay plate already contained 5 μl of compound in 10% DMSO. Added 10 μl of 2.5× enzyme solution to each well of the 384-well assay plate, except no enzyme control wells. The final concentration of IRAK4 in reaction was 3.5 nM. Added 10 μl of 1× kinase base buffer to no enzyme control wells in the assay plate. Incubated at room temperature for 10 min.
Added 10 μl of 2.5× peptide solution to each well of the 384-well assay plate. The final concentration of Peptide 8 and ATP was 1.5 μM and 37 μM, respectively. Incubated at 28° C. for 40 minutes. Added 25 μl of stop buffer to stop reaction. Collected data on Caliper.
Copied conversion % data from Caliper program. Converted conversion % values to percent inhibition values. Percent inhibition=(max−conversion %)/(max−min)*100, where “max” means the conversion % of DMSO control and “min” means the conversion % of no enzyme control.

THP-1 cells [1] = experiment: LPS-induced cytokine production assay, IL8; type: cell-based; details: Homo sapiens, 300 ng/mL LPS, 16 hours, read-out: IL-8 (16 h)
Experimental: (§1) Provided compounds were also assayed in an LPS (Lipopolysacharide) or R848 (TLR-7 agonist) induced cytokine (e.g. TNFα and IL8) production assay in THP-1 cells, human peripheral blood mononuclear cells (hPBMC), and whole blood. The exemplary protocol for this assay in THP-1 cells was as follows below.
(§2) THP-1 cells from ATCC (TIB-202) were cultured in RPMI Medium 1640 (Invitrogen, Cat No. A10491-01), 10% fetal bovine serum (Invitrogen, Cat No. 10099141, Lot No. 8172882) containing 100 U/mL Penicillin, 100 μg/mL streptomycin (Invitrogen, Cat No. 15140-122), and 50 uM 2-Mercaptoethanol (Invitrogen, Cat No. 21985023). LPS-EK ultra pure (Invivogen, Cat No. tlrl-peklps) was used to induce IL8 and TNFα production, that is detected in the cell culture supernatant by IL8 HTRF kit (Cisbio, Cat No. 62IL8PEB) and TNFα HTRF kit (Cisbio, Cat No. 62TNFPEB), as per manufacturer instructions. Cells were cultured in 96 well assay plates at 100,000 cells per well, and compounds diluted in final 0.3% DMSO were pre-incubated with cells for 1 hour prior to stimulation with 300 ng/mL LPS. Cytokine production in cell supernatant was measured at 5 hours for TNFα and IL8 production, and for 16 hours for IL8 production and assessment of cell viability.

THP-1 cells [2] = experiment: LPS-induced cytokine production assay, TNFα; type: cell-based; details: Homo sapiens, 300 ng/mL LPS, 5 hours, read-out: TNF (5 h)
Experimental: as §1, §2

SMILES: OCCc1ccc2sc3ncnc(N[C@H]4CC[C@H](N5CCOCC5)CC4)c3c2c1 [I-15, 2-(4-(((1r,4r)-4-morpholinocyclohexyl)amino)benzo[4,5]thieno[2,3-d]pyrimidin-6-yl)ethanol]
- pIC50 (IRAK4): 6.00 to 7.00

SMILES: CN(C)[C@H]1CC[C@H](Nc2ncnc3sc4ccc(C(N)=O)cc4c23)CC1 [I-6, 4-(((1r,4r)-4-(dimethylamino)cyclohexyl)amino)benzo[4,5]thieno[2,3-d]pyrimidine-6-carboxamide]
- pIC50 (THP-1 cells [1]): ≥ 6.00
- pIC50 (IRAK4): ≥ 7.00
- pIC50 (THP-1 cells [2]): ≤ 6.00

SMILES: CN(C)[C@H]1CC[C@H](Nc2ncnc3sc4ccccc4c23)CC1 [I-2, (1r,4r)-N1-(benzo[4,5]thieno[2,3-d]pyrimidin-4-yl)-N4,N4-dimethylcyclohexane-1,4-diamine]
- pIC50 (THP-1 cells [1]): ≥ 6.00
- pIC50 (IRAK4): ≥ 7.00
- pIC50 (THP-1 cells [2]): ≥ 6.00

SMILES: CCNC(=O)c1ccc2sc3ncnc(N[C@H]4CC[C@H](N(C)C)CC4)c3c2c1 [I-17, 4-(((1r,4r)-4-(dimethylamino)cyclohexyl)amino)-N-ethylbenzo[4,5]thieno[2,3-d]pyrimidine-6-carboxamide]
- pIC50 (IRAK4): 6.00 to 7.00

SMILES: OCc1ccc2sc3ncnc(N[C@H]4CC[C@H](N5CCOCC5)CC4)c3c2c1 [I-10, (4-(((1r,4r)-4-morpholinocyclohexyl)amino)benzo[4,5]thieno[2,3-d]pyrimidin-6-yl)methanol]
- pIC50 (IRAK4): 6.00 to 7.00

SMILES: CCOC(=O)c1cccc2sc3ncnc(N[C@H]4CC[C@H](N(C)C)CC4)c3c12 [I-22, ethyl 4-(((1r,4r)-4-(dimethylamino)cyclohexyl)amino)benzo[4,5]thieno[2,3-d]pyrimidine-5-carboxylate]
- pIC50 (IRAK4): ≤ 5.00

SMILES: CNC(=O)c1ccc2sc3ncnc(N[C@H]4CC[C@H](N(C)C)CC4)c3c2c1 [I-14, 4-(((1r,4r)-4-(dimethylamino)cyclohexyl)amino)-N-methylbenzo[4,5]thieno[2,3-d]pyrimidine-6-carboxamide]
- pIC50 (IRAK4): 6.00 to 7.00

SMILES: CN(C)[C@H]1CC[C@H](Nc2ncnc3sc4ccc(CO)cc4c23)CC1 [I-7, (4-(((1r,4r)-4-(dimethylamino)cyclohexyl)amino)benzo[4,5]thieno[2,3-d]pyrimidin-6-yl)methanol]
- pIC50 (THP-1 cells [1]): ≥ 6.00
- pIC50 (IRAK4): 6.00 to 7.00
- pIC50 (THP-1 cells [2]): ≤ 6.00

SMILES: CCOC(=O)c1ccc2sc3ncnc(N[C@H]4CC[C@H](N5CCOCC5)CC4)c3c2c1 [I-8, Ethyl 4-(((1r,4r)-4-morpholinocyclohexyl)amino)benzo[4,5]thieno[2,3-d]pyrimidine-6-carboxylate]
- pIC50 (IRAK4): 6.00 to 7.00

SMILES: CN(C)[C@H]1CC[C@H](Oc2ncnc3sc4ccccc4c23)CC1 [I-12, (1r,4r)-4-(benzo[4,5]thieno[2,3-d]pyrimidin-4-yloxy)-N,N-dimethylcyclohexanamine]
- pIC50 (IRAK4): 6.00 to 7.00

SMILES: CN(C)C(=O)c1ccc2sc3ncnc(N[C@H]4CC[C@H](N(C)C)CC4)c3c2c1 [I-19, 4-(((1r,4r)-4-(dimethylamino)cyclohexyl)amino)-N,N-dimethylbenzo[4,5]thieno[2,3-d]pyrimidine-6-carboxamide]
- pIC50 (IRAK4): 5.00 to 6.00

SMILES: CN(C)[C@H]1CC[C@H](Nc2ncnc3sc4cccc(CO)c4c23)CC1 [I-23, (4-(((1r,4r)-4-(dimethylamino)cyclohexyl)amino)benzo[4,5]thieno[2,3-d]pyrimidin-5-yl)methanol]
- pIC50 (IRAK4): ≤ 5.00

SMILES: c1ccc2c(c1)sc1ncnc(N[C@H]3CC[C@H](N4CCOCC4)CC3)c12 [I-4, N-((1r,4r)-4-morpholinocyclohexyl)benzo[4,5]thieno[2,3-d]pyrimidin-4-amine]
- pIC50 (THP-1 cells [1]): ≥ 6.00
- pIC50 (IRAK4): ≥ 7.00
- pIC50 (THP-1 cells [2]): ≥ 6.00

SMILES: CCOC(=O)Cc1ccc2sc3ncnc(N[C@H]4CC[C@H](N5CCOCC5)CC4)c3c2c1 [I-21, Ethyl 2-(4-(((1r,4r)-4-morpholinocyclohexyl)amino)benzo[4,5]thieno[2,3-d]pyrimidin-6-yl)acetate]
- pIC50 (IRAK4): 5.00 to 6.00

SMILES: CN[C@H]1CC[C@H](Nc2ncnc3sc4ccccc4c23)CC1 [I-9, (1r,4r)-N1-(benzo[4,5]thieno[2,3-d]pyrimidin-4-yl)-N4-methylcyclohexane-1,4-diamine]
- pIC50 (THP-1 cells [1]): ≥ 6.00
- pIC50 (IRAK4): 6.00 to 7.00
- pIC50 (THP-1 cells [2]): ≤ 6.00

SMILES: CN(C)C(=O)c1ccc2sc3ncnc(N[C@H]4CC[C@H](N5CCOCC5)CC4)c3c2c1 [I-20, N,N-dimethyl-4-(((1r,4r)-4-morpholinocyclohexyl)amino)benzo[4,5]thieno[2,3-d]pyrimidine-6-carboxamide]
- pIC50 (IRAK4): 5.00 to 6.00

SMILES: c1ccc2c(c1)sc1ncnc(O[C@H]3CC[C@H](N4CCOCC4)CC3)c12 [I-16, 4-((1r,4r)-4-(benzo[4,5]thieno[2,3-d]pyrimidin-4-yloxy)cyclohexyl)morpholine]
- pIC50 (IRAK4): 6.00 to 7.00

SMILES: N[C@H]1CC[C@H](Nc2ncnc3sc4ccccc4c23)CC1 [I-11, (1r,4r)-N1-(benzo[4,5]thieno[2,3-d]pyrimidin-4-yl)cyclohexane-1,4-diamine hydrochloride]
- pIC50 (IRAK4): 6.00 to 7.00

SMILES: OCCc1ccc2sc3ncnc(O[C@H]4CC[C@H](N5CCOCC5)CC4)c3c2c1 [I-13, 2-(4-(((1r,4r)-4-morpholinocyclohexyl)oxy)benzo[4,5]thieno[2,3-d]pyrimidin-6-yl)ethanol]
- pIC50 (IRAK4): 6.00 to 7.00

SMILES: NC(=O)Cc1ccc2sc3ncnc(N[C@H]4CC[C@H](N5CCOCC5)CC4)c3c2c1 [I-18, 2-(4-(((1r,4r)-4-morpholinocyclohexyl)amino)benzo[4,5]thieno[2,3-d]pyrimidin-6-yl)acetamide]
- pIC50 (IRAK4): 5.00 to 6.00

SMILES: CCOC(=O)c1ccc2sc3ncnc(N[C@H]4CC[C@H](N(C)C)CC4)c3c2c1 [I-5, ethyl 4-(((1r,4r)-4-(dimethylamino)cyclohexyl)amino)benzo[4,5]thieno[2,3-d]pyrimidine-6-carboxylate]
- pIC50 (THP-1 cells [1]): ≥ 6.00
- pIC50 (IRAK4): ≥ 7.00
- pIC50 (THP-1 cells [2]): ≥ 6.00

SMILES: NC(=O)c1ccc2sc3ncnc(N[C@H]4CC[C@H](N5CCOCC5)CC4)c3c2c1 [I-1, 4-(((1r,4r)-4-morpholinocyclohexyl)amino)benzo[4,5]thieno[2,3-d]pyrimidine-6-carboxamide]
- pIC50 (THP-1 cells [1]): ≥ 6.00
- pIC50 (IRAK4): ≥ 7.00
- pIC50 (THP-1 cells [2]): ≥ 6.00

SMILES: CN(CC(=O)N1CCCC1)[C@H]1CC[C@H](Nc2ncnc3sc4ccccc4c23)CC1 [I-3, 2-(((1r,4r)-4-(benzo[4,5]thieno[2,3-d]pyrimidin-4-ylamino)cyclohexyl)(methyl)amino)-1-(pyrrolidin-1-yl)ethanone]
- pIC50 (THP-1 cells [1]): ≥ 6.00
- pIC50 (IRAK4): ≥ 7.00
- pIC50 (THP-1 cells [2]): ≤ 6.00
